Data reported in US6703347B2, “Isothiazole derivatives and their use as pesticides” (Syngenta Limited, priority 2000, dated 2004).

How the values were obtained:
[1] = tested on: diamond back moth (Plutella xylostella); experiment: pesticidal test against diamond back moth; conditions: liquid composition containing 500 ppm by weight of compound
Procedure: (§1) The activities of individual compounds of formula (I) were determined using a variety of pests. The pests were treated with a liquid composition containing 500 parts per million (ppm) by weight of a compound of formula (I). Each composition was made by dissolving the compound in an acetone and ethanol (50:50 by volume) mixture and diluting the solution with water containing 0.05% by volume of a wetting agent, SYNPERONIC NP8, until the liquid composition contained the required concentration of the compound.
(§2) The test procedure adopted with regard to each pest was essentially the same and comprised supporting a number of the pests on a medium, which was usually a substrate, a host plant or a foodstuff on which the pests feed, and treating either or both the medium and the pests with a composition. Pest mortality was assessed usually between two and five days after treatment.
(§3) Similar tests were conducted against, independently, two-spotted spider mites (Tetranychus urticae), fruit flies (Drosophila melanogaster), tobacco budworms (Heliothis virescens), diamond back moth (Plutella xylostella) and corn root worm (Diabrotica balteata).

[2] = tested on: corn root worm (Diabrotica balteata); experiment: pesticidal test against corn root worm; conditions: liquid composition containing 500 ppm by weight of compound
Procedure: as §1, §2, §3

[3] = tested on: fruit flies (Drosophila melanogaster); experiment: pesticidal test against fruit flies; conditions: liquid composition containing 500 ppm by weight of compound
Procedure: as §1, §2, §3

[4] = tested on: peach potato aphids (Myzus persicae); conditions: 500 ppm by weight; infested Chinese cabbage leaves sprayed; mortality assessed after three days
Procedure: This Example illustrates the pesticidal/insecticidal properties of compounds of formula (I). The activities of individual compounds of formula (I) were determined using a variety of pests. The pests were treated with a liquid composition containing 500 parts per million (ppm) by weight of a compound of formula (I). Each composition was made by dissolving the compound in an acetone and ethanol (50:50 by volume) mixture and diluting the solution with water containing 0.05% by volume of a wetting agent, SYNPERONIC NP8, until the liquid composition contained the required concentration of the compound.
as §2
In each test against peach potato aphids (Myzus persicae), Chinese cabbage leaves were infested with aphids, the infested leaves were sprayed with a test composition and pest mortality was assessed after three days.

[5] = tested on: tobacco budworms (Heliothis virescens); experiment: pesticidal test against tobacco budworms; conditions: liquid composition containing 500 ppm by weight of compound
Procedure: as §1, §2, §3

Cc1nsc(NC(=O)C(C)c2ccc3oc(CC(C)C)nc3c2)c1Cl (stereo not drawn) [Table 1 Compound 6]
mortality (score) Px [1]: 9 (9 indicates 80-100% mortality)
mortality (score) Db [2]: 9 (9 indicates 80-100% mortality)
mortality (score) Dm [3]: 0 (represents less than 40% mortality)
mortality (score) Mp [4]: 0 (represents less than 40% mortality)

CCOCN(C(=O)C(C)c1ccc2oc(CC(C)C)nc2c1)c1snc(C)c1Cl (stereo not drawn) [Table 1 Compound 76]
mortality (score) Px [1]: 9 (9 indicates 80-100% mortality)
mortality (score) Db [2]: 9 (9 indicates 80-100% mortality)
mortality (score) Hv [5]: 5 (5 indicates 40-79% mortality)
mortality (score) Dm [3]: 9 (9 indicates 80-100% mortality)
mortality (score) Mp [4]: 9 (9 indicates 80-100% mortality)

CCOCN(C(=O)C(C)c1ccc2oc(CC(C)(C)C)nc2c1)c1snc(C)c1Cl (stereo not drawn) [Table 1 Compound 77]
mortality (score) Px [1]: 9 (9 indicates 80-100% mortality)
mortality (score) Db [2]: 9 (9 indicates 80-100% mortality)
mortality (score) Hv [5]: 9 (9 indicates 80-100% mortality)
mortality (score) Dm [3]: 0 (represents less than 40% mortality)
mortality (score) Mp [4]: 9 (9 indicates 80-100% mortality)

CCOCN(C(=O)C(C)c1ccc2oc(CC(F)(F)F)nc2c1)c1snc(C)c1Cl (stereo not drawn) [Table 1 Compound 78]
mortality (score) Px [1]: 9 (9 indicates 80-100% mortality)
mortality (score) Db [2]: 9 (9 indicates 80-100% mortality)
mortality (score) Hv [5]: 9 (9 indicates 80-100% mortality)
mortality (score) Dm [3]: 9 (9 indicates 80-100% mortality)
mortality (score) Mp [4]: 9 (9 indicates 80-100% mortality)

CCOCN(C(=O)C(C)c1ccc2oc(C(F)(F)C(F)(F)C(F)(F)F)nc2c1)c1snc(C)c1Cl (stereo not drawn) [Table 1 Compound 80]
mortality (score) Px [1]: 9 (9 indicates 80-100% mortality)
mortality (score) Db [2]: 9 (9 indicates 80-100% mortality)
mortality (score) Hv [5]: 9 (9 indicates 80-100% mortality)
mortality (score) Dm [3]: 0 (represents less than 40% mortality)
mortality (score) Mp [4]: 5 (5 indicates 40-79% mortality)

CCc1nsc(NC(=O)C(C)c2ccc3oc(C)nc3c2)c1Cl (stereo not drawn) [Table 1 Compound 81]
mortality (score) Px [1]: 9 (9 indicates 80-100% mortality)
mortality (score) Db [2]: 9 (9 indicates 80-100% mortality)
mortality (score) Dm [3]: 9 (9 indicates 80-100% mortality)
mortality (score) Mp [4]: 9 (9 indicates 80-100% mortality)

CCc1nsc(NC(=O)C(C)c2ccc3oc(CC(C)C)nc3c2)c1Cl (stereo not drawn) [Table 1 Compound 86]
mortality (score) Px [1]: 9 (9 indicates 80-100% mortality)
mortality (score) Db [2]: 9 (9 indicates 80-100% mortality)
mortality (score) Dm [3]: 9 (9 indicates 80-100% mortality)
mortality (score) Mp [4]: 9 (9 indicates 80-100% mortality)

CCc1nsc(NC(=O)C(C)c2ccc3oc(CC(C)(C)C)nc3c2)c1Cl (stereo not drawn) [Table 1 Compound 87]
mortality (score) Px [1]: 9 (9 indicates 80-100% mortality)
mortality (score) Db [2]: 9 (9 indicates 80-100% mortality)
mortality (score) Dm [3]: 9 (9 indicates 80-100% mortality)
mortality (score) Mp [4]: 9 (9 indicates 80-100% mortality)

CCc1nsc(NC(=O)C(C)c2ccc3oc(CC(F)(F)F)nc3c2)c1Cl (stereo not drawn) [Table 1 Compound 88]
mortality (score) Px [1]: 9 (9 indicates 80-100% mortality)
mortality (score) Db [2]: 9 (9 indicates 80-100% mortality)
mortality (score) Dm [3]: 0 (represents less than 40% mortality)
mortality (score) Mp [4]: 9 (9 indicates 80-100% mortality)

CCc1nsc(NC(=O)C(C)c2ccc3oc(C(F)(F)C(F)(F)C(F)(F)F)nc3c2)c1Cl (stereo not drawn) [Table 1 Compound 90]
mortality (score) Px [1]: 9 (9 indicates 80-100% mortality)
mortality (score) Db [2]: 9 (9 indicates 80-100% mortality)
mortality (score) Dm [3]: 0 (represents less than 40% mortality)
mortality (score) Mp [4]: 0 (represents less than 40% mortality)

CCOCN(C(=O)C(C)c1ccc2oc(CC(C)C)nc2c1)c1snc(CC)c1Cl (stereo not drawn) [Table 1 Compound 156]
mortality (score) Mp [4]: 9 (9 indicates 80-100% mortality)

CCOCN(C(=O)C(C)c1ccc2oc(CC(C)(C)C)nc2c1)c1snc(CC)c1Cl (stereo not drawn) [Table 1 Compound 157]
mortality (score) Px [1]: 9 (9 indicates 80-100% mortality)
mortality (score) Db [2]: 9 (9 indicates 80-100% mortality)
mortality (score) Hv [5]: 9 (9 indicates 80-100% mortality)
mortality (score) Dm [3]: 0 (represents less than 40% mortality)
mortality (score) Mp [4]: 9 (9 indicates 80-100% mortality)

CCOCN(C(=O)C(C)c1ccc2oc(C(F)(F)C(F)(F)F)nc2c1)c1snc(CC)c1Cl (stereo not drawn) [Table 1 Compound 159]
mortality (score) Px [1]: 9 (9 indicates 80-100% mortality)
mortality (score) Db [2]: 9 (9 indicates 80-100% mortality)
mortality (score) Dm [3]: 9 (9 indicates 80-100% mortality)
mortality (score) Mp [4]: 9 (9 indicates 80-100% mortality)

CCOCN(C(=O)C(C)c1ccc2oc(C(F)(F)C(F)(F)C(F)(F)F)nc2c1)c1snc(CC)c1Cl (stereo not drawn) [Table 1 Compound 160]
mortality (score) Px [1]: 9 (9 indicates 80-100% mortality)
mortality (score) Db [2]: 9 (9 indicates 80-100% mortality)
mortality (score) Dm [3]: 9 (9 indicates 80-100% mortality)
mortality (score) Mp [4]: 9 (9 indicates 80-100% mortality)

CCC(C(=O)Nc1snc(C)c1Cl)c1ccc2oc(C(F)(F)C(F)(F)C(F)(F)F)nc2c1 (stereo not drawn) [Table 2 Compound 10]
mortality (score) Db [2]: 9 (9 indicates 80-100% mortality)
mortality (score) Hv [5]: 9 (9 indicates 80-100% mortality)
mortality (score) Dm [3]: 0 (represents less than 40% mortality)
mortality (score) Mp [4]: 5 (5 indicates 40-79% mortality)

CCc1nsc(NC(=O)C(CC)c2ccc3oc(C(F)(F)C(F)(F)C(F)(F)F)nc3c2)c1Cl (stereo not drawn) [Table 2 Compound 90]
mortality (score) Db [2]: 0 (represents less than 40% mortality)
mortality (score) Hv [5]: 9 (9 indicates 80-100% mortality)
mortality (score) Dm [3]: 0 (represents less than 40% mortality)
mortality (score) Mp [4]: 0 (represents less than 40% mortality)

Cc1nsc(NC(=O)C(F)c2ccc3oc(CC(C)C)nc3c2)c1Cl (stereo not drawn) [Table 5 Compound 6]
mortality (score) Px [1]: 9 (9 indicates 80-100% mortality)
mortality (score) Db [2]: 9 (9 indicates 80-100% mortality)
mortality (score) Dm [3]: 9 (9 indicates 80-100% mortality)
mortality (score) Mp [4]: 9 (9 indicates 80-100% mortality)

Cc1nsc(NC(=O)C(F)c2ccc3oc(C(F)(F)C(F)(F)C(F)(F)F)nc3c2)c1Cl (stereo not drawn) [Table 5 Compound 10]
mortality (score) Px [1]: 9 (9 indicates 80-100% mortality)
mortality (score) Db [2]: 9 (9 indicates 80-100% mortality)
mortality (score) Hv [5]: 9 (9 indicates 80-100% mortality)
mortality (score) Dm [3]: 9 (9 indicates 80-100% mortality)
mortality (score) Mp [4]: 9 (9 indicates 80-100% mortality)

CCOCN(C(=O)C(F)c1ccc2oc(CC(C)(C)C)nc2c1)c1snc(C)c1Cl (stereo not drawn) [Table 5 Compound 77]
mortality (score) Px [1]: 9 (9 indicates 80-100% mortality)
mortality (score) Db [2]: 9 (9 indicates 80-100% mortality)
mortality (score) Hv [5]: 5 (5 indicates 40-79% mortality)
mortality (score) Dm [3]: 0 (represents less than 40% mortality)
mortality (score) Mp [4]: 9 (9 indicates 80-100% mortality)

CCc1nsc(NC(=O)C(F)c2ccc3oc(CC(C)C)nc3c2)c1Cl (stereo not drawn) [Table 5 Compound 86]
mortality (score) Px [1]: 9 (9 indicates 80-100% mortality)
mortality (score) Hv [5]: 9 (9 indicates 80-100% mortality)
mortality (score) Dm [3]: 9 (9 indicates 80-100% mortality)
mortality (score) Mp [4]: 9 (9 indicates 80-100% mortality)

CCc1nsc(NC(=O)C(F)c2ccc3oc(CC(C)(C)C)nc3c2)c1Cl (stereo not drawn) [Table 5 Compound 87]
mortality (score) Px [1]: 9 (9 indicates 80-100% mortality)
mortality (score) Hv [5]: 9 (9 indicates 80-100% mortality)
mortality (score) Dm [3]: 9 (9 indicates 80-100% mortality)
mortality (score) Mp [4]: 9 (9 indicates 80-100% mortality)

CCc1nsc(NC(=O)C(F)c2ccc3oc(C(F)(F)C(F)(F)C(F)(F)F)nc3c2)c1Cl (stereo not drawn) [Table 5 Compound 90]
mortality (score) Px [1]: 9 (9 indicates 80-100% mortality)
mortality (score) Db [2]: 9 (9 indicates 80-100% mortality)
mortality (score) Dm [3]: 9 (9 indicates 80-100% mortality)
mortality (score) Mp [4]: 9 (9 indicates 80-100% mortality)

CCOCN(C(=O)C(F)c1ccc2oc(CC(C)(C)C)nc2c1)c1snc(CC)c1Cl (stereo not drawn) [Table 5 Compound 157]
mortality (score) Px [1]: 9 (9 indicates 80-100% mortality)
mortality (score) Db [2]: 9 (9 indicates 80-100% mortality)
mortality (score) Hv [5]: 9 (9 indicates 80-100% mortality)
mortality (score) Dm [3]: 9 (9 indicates 80-100% mortality)
mortality (score) Mp [4]: 9 (9 indicates 80-100% mortality)

CCOCN(C(=O)C(F)c1ccc2oc(C(F)(F)C(F)(F)C(F)(F)F)nc2c1)c1snc(CC)c1Cl (stereo not drawn) [Table 5 Compound 160]
mortality (score) Px [1]: 9 (9 indicates 80-100% mortality)
mortality (score) Db [2]: 9 (9 indicates 80-100% mortality)
mortality (score) Dm [3]: 0 (represents less than 40% mortality)
mortality (score) Mp [4]: 9 (9 indicates 80-100% mortality)

CCc1nsc(NC(=O)C(OC)c2ccc3oc(CC(C)C)nc3c2)c1Cl (stereo not drawn) [Table 9 Compound 86]
mortality (score) Px [1]: 9 (9 indicates 80-100% mortality)
mortality (score) Db [2]: 9 (9 indicates 80-100% mortality)
mortality (score) Hv [5]: 9 (9 indicates 80-100% mortality)
mortality (score) Dm [3]: 5 (5 indicates 40-79% mortality)
mortality (score) Mp [4]: 9 (9 indicates 80-100% mortality)

CCOCN(C(=O)C(C)c1ccc2sc(CC(C)C)nc2c1)c1snc(CC)c1Cl (stereo not drawn) [Table 39 Compound 156]
mortality (score) Px [1]: 9 (9 indicates 80-100% mortality)
mortality (score) Hv [5]: 9 (9 indicates 80-100% mortality)
mortality (score) Dm [3]: 0 (represents less than 40% mortality)
mortality (score) Mp [4]: 9 (9 indicates 80-100% mortality)

CCOCN(C(=O)CCc1ccc2oc(CC(C)(C)C)nc2c1)c1snc(C)c1Cl [Table 82 Compound 77]
mortality (score) Px [1]: 0 (represents less than 40% mortality)
mortality (score) Hv [5]: 0 (represents less than 40% mortality)
mortality (score) Dm [3]: 0 (represents less than 40% mortality)
mortality (score) Mp [4]: 9 (9 indicates 80-100% mortality)
